Values of other authors as cited in patent US7745665B2, “Substituted phenethylamines” (Auspex Pharmaceuticals, Inc., priority 2007, dated 2010).

Conditions: oxidation of the methylene group alpha to the nitrogen; humans

SMILES: CNC[C@H](O)c1cccc(O)c1 [Phenylephrine, (R)-3-(1-hydroxy-2-methylamino-ethyl)-phenol]
- hydroxymandelic acid metabolite as share of the recovered mass balance: more than 50%
